Data taken from patent publication US20110105515A1, “TARGETING THE ONCOPROTEIN NUCLEOPHOSMIN” (President and Fellows of Harvard College, priority 2007, published 2011).
“Also recorded” adds a separate entry of the source.

Key:
exportin-1 (XPO1) = biological target: T1, exportin-1 (XPO1) (Homo sapiens, UniProt O14980); assay: Competitive binding affinity-isolation with probe 5 in T-47D lysates, exportin-1; conditions: 10 μM probe 5, 100 μM inhibitor
T1 construct: endogenous in cells; host or cells: T-47D lysate
Source text: (§1) The supernatant was discarded.
(§2) See above for solution preparation.

peroxiredoxin 1 (PRX1) = biological target: T2, peroxiredoxin 1 (PRX1) (Homo sapiens, UniProt Q06830); assay: Competitive binding affinity-isolation with probe 5 in T-47D lysates, peroxiredoxin 1; conditions: 10 μM probe 5, 100 μM inhibitor
T2 construct: endogenous in cells; host or cells: T-47D lysate
Source text: as §1, §2

HeLa S3 cells [1] = assay: Transfection/apoptosis experiments in nucleophosmin-depleted HeLa S3 cells; type: cell-based, human; conditions: 24 h, Yo-Pro iodide/propidium iodide flow cytometry
Procedure: The concentration of the cell suspension was determined using a hemacytometer, and a suspension of 1×10^5 cells/mL was prepared.
A siRNA targeting NPM1.1 (Applied Biosystems, Cat. No. AM16708; ID 143640; 11.4 μL from a 50 μM stock solution) was added to Opti-MEM (938.6 μL). At the same time, a control siRNA (Applied Biosystems, Cat. No. AM4611; 11.4 μL from a 50 μM stock) was similarly added to Opti-MEM (938.6 μL).
The culture flasks were rinsed with an additional 5 mL medium, which was likewise added to the centrifuge tubes.
The concentration of the cell suspensions was determined using a hemacytometer. Over the course of the 2 d transfection period, both the transfected and mock-transfected cells grew ˜4-fold.
12-well plates were charged with 3 mL per well of suspensions of the transfected or mock-transfected cells, at 2.5×10^4 cells per mL. […] The following day, solutions of cell culture medium containing (+)-avrainvillamide or vehicle control were prepared. 500-μL aliquots of these solutions were added to the 3-mL samples. The treated samples were returned to the incubator (37° C., 5% CO2) for 24 h.
The supernatant was discarded, and the samples were cooled on ice. Apoptosis detection buffer (500 μL; see above for preparation) was added to each sample. […]
Each sample was analyzed on an LSRII flow cytometer, with 20,000 events recorded per sample. […]

p53 [2] = assay: Effect of (+)-avrainvillamide incubation on p53/nucleophosmin, T-47D cells (Western-blot); type: cell-based, human; conditions: 24 h
Procedure: (§3) Four 6-well plates (two for each cell line) were charged with 6 mL per well of cell suspension at 2×10^5 cells/mL. […] The following day, stock solutions of (+)-avrainvillamide (1) in fresh cell culture medium were prepared as indicated below:
(§4) To each 6-mL sample, a 200-μL aliquot of the appropriate stock solution was added, resulting in a final concentration of 0-4 μM (+)-avrainvillamide (1). The samples were returned to the incubator (37° C., 5% CO2) for 24 h.
(§5) The cells were resuspended in 1 mL PBS and mixed thoroughly. A 500-μL aliquot from each sample was transferred to a fresh 1.5-mL centrifuge tube. All the samples were centrifuged (5 min at 500×g) and the supernatant was discarded. The resulting 20 samples (10 samples of T-47D cells, treated with 0-4 μM (+)-avrainvillamide, and 10 samples of LNCaP cells, treated with 0-4 μM (+)-avrainvillamide (1), where each sample contained the number of cells from 1 well of a 6-well plate) were separated into two groups. One group of samples was lysed in RIPA buffer (see below) to prepare a series of whole-cell lysates. The other group of samples was first treated with sucrose-hypotonic buffer to prepare a series of cytosolic lysates. The remaining pellets were washed and treated with RIPA buffer to prepare a series of nuclear-enriched lysates (see below).

p53 [3] = assay: Effect of (+)-avrainvillamide incubation on p53/nucleophosmin, LNCaP cells (Western-blot); type: cell-based, human; conditions: 24 h
Procedure: as §3, §4, §5

[4] = tested on: MALME-3M and MALME-3 cells; assay: Selectivity assay, malignant melanoma MALME-3M versus fibroblast MALME-3; type: cell-based; conditions: for selectivity factor, melanoma cells relative to fibroblast control (LC25, 25 percent cell death, estimate of GI50): MALME-3M versus MALME-3
Procedure: […]. A cell line from a healthy fibroblast from the same patient has also been deposited with the American Type Cell Culture Corporation (ATCC). Fresh stockes of both MALME-3M and MALME-3 from ATCC. Avrainvillamide was test against the two cells lines at the same time, taking all possible precautions to ensure that both sets of samples were treated identically. […] As a measure of cytotoxicity and antiproliferative activity, we calculated both LC50 and LC25 (as an estimate of GI50).
The 9.7-fold selectivity at 25 percent cell death is representative of at least a modest degree of selectivity. For comparison, cytochalsine B and geldanamycin were analyzed in identical experiments. Cytochalasine B is a non-selective cytotoxic agent for which a selectivity factor of 0.2 at 25 percent cell death was observed. Geldanamycin is known to be a potent, selective inhibitor of tumor cell growth for which a selectivity factor of >100 at 25 percent cell death was observed.

T-47D cells = assay: Cell cycle effects in T-47D cells; type: cell-based, human
HeLa S3 cells [5] = assay: Apoptosis in HeLa S3 cells (Yo-Pro cell permeability, annexin-binding); type: cell-based, human; conditions: Yo-Pro cell permeability and annexin-binding experiments
LNCaP and T-47D cells = assay: Western blot for apoptotic markers in LNCaP and T-47D cells; type: cell-based, human
[6] = previous report: 48-h incubation, MTS/PMS; cited from earlier work
proteins of T-47D cells = assay: Affinity-isolation from T-47D cells, LC-MS/MS analysis of proteins; conditions: narrower region of the gel; equal concentrations
nucleophosmin = nucleophosmin (Homo sapiens, UniProt P06748); assay: Competitive binding affinity-isolation with probe 5 in T-47D lysates, nucleophosmin

CC1(C)C=Cc2c(ccc3c2[N+]([O-])=C2C3=C[C@@]34NC(=O)C5(CCCN5C3=O)CC4C2(C)C)O1 (single isomer, unassigned; (+)) [compound 1, (+)-Avrainvillamide]
blocking of the binding of probe 5 to exportin-1 (XPO1) (exportin-1 (XPO1)): capable of blocking
blocking of the binding of probe 5 to peroxiredoxin 1 (PRX1) (peroxiredoxin 1 (PRX1)): capable of blocking
apoptosis in HeLa S3 cells reduced in nucleophosmin (siRNA) relative to mock-transfected cells (HeLa S3 cells [1]): enhanced sensitivity
cellular p53 at the highest concentration (p53 [2]; 4 μM): reduction in cellular p53
concentration giving a substantial increase in cellular p53 (p53 [2]; Western-blot): 500 nM
concentration giving a substantial increase in cellular p53 (p53 [3]): 500 nM
activity against MALME-3M cells ([4]; MALME-3M): nanomolar activity
selectivity factor, melanoma cells relative to fibroblast control (LC25, 25 percent cell death, estimate of GI50) ([4]; listed as Avrainvillamide): 9.7
selectivity factor, melanoma cells relative to fibroblast control (LC25, 25 percent cell death, estimate of GI50) ([4]; listed as avrainvillamide): ~10
cell cycle accumulatory effects (T-47D cells): immediate decrease in the number of cells in S-phase, followed by an increase in G2/M cells
cell death in HeLa S3 cells (HeLa S3 cells [5]): cell death through apoptosis
apoptotic markers (Western blot) (LNCaP and T-47D cells): appearance of pro-apoptotic factors
fold more potent than the unnatural enantiomer (antiproliferative activity) [6]: ~9 fold
detection of nucleophosmin by LC-MS/MS after affinity isolation (proteins of T-47D cells): not detected
binding of nucleophosmin to probe 5 in the presence of a 10-fold higher concentration of competitor (nucleophosmin; 10 μM probe 5, 100 μM competitor, nuclear-enriched and whole-cell T-47D lysates): inhibited; also recorded: most effective
concentration required for inhibition of probe 5-nucleophosmin binding (nucleophosmin; T-47D lysate): 100 µM
inhibition of binding of nucleophosmin to probe 5 by analogues (FIG. 4) (nucleophosmin; T-47D nuclear-enriched lysate): inhibited essentially equivalently
